Data set [1] can be described thus: Long term stability of ON 01910.Na 75 mg/mL in 100% PEG-400 for clinical use (HPLC). Type of data set: physicochemical. Here is the method:
ON 01910.Na IV solution was manufactured at a concentration of 75 mg/mL in 100% PEG-400. The finished product consisted of 3 mL of drug product aseptically filled into presterilized 5 mL vials. The manufacturing was in compliance with current Good Manufacturing Practices regulations.
(a) HPLC—Chromatography is performed using a Phenomenex Luna C-18 (2), 5 micron (4.6 mm×250 mm, PN 00G-4252-E0) column at ambient conditions. The mobile phase used is 60%-0.1% trifluoroacetic acid in water; 40% acetonitrile. The flow rate is set at 2.0 ml/min. Injection volume is 50 μL. Detection is accomplished by means of a UV/VIS detector at 230, 254, and 320 nm. Instrument control and data acquisition is facilitated using a Waters Millennium (V 2.15) software package. The external calibration is obtained using ON 01910.Na standard solutions prepared in 50:50 acetonitrile:water. This analytical method was validated.

Data set [2] relates to Patients With Advanced Solid Tumors. Put plainly: Phase I dose escalation study, 2-hour intravenous infusion. Type of data set: in vivo, human. The procedure: Safety and efficacy of this formulation, for example, is tested in a Phase I clinical study, at The Johns Hopkins Sidney Kimmel Cancer Center, Baltimore, Md., i.e., “Phase I Dose Escalation Study Of ON 01910.Na By 2-Hour Intravenous Infusion In Patients With Advanced Solid Tumors”. U.S. FDA IND #66,780. The objectives of this study include an identification of a maximum tolerated dose (MTD) and a recommended dose for further clinical studies. A further object of the study is to establish a safety profile, i.e., to observe any toxicities. The patients in this study have advanced solid tumors that have failed conventional treatments, or for which no approved therapy exists. An object of the study is particularly to observe efficacy (anti-cancer effects).
The patients are administered the preferred formulation described herein of the ON 01910.Na drug (properly diluted in intravenous solution) over a two hour period, twice per week, for three weeks. The patients are subsequently observed for […], to constitute a four week treatment cycle.
This study started with a single patient at the first starting dose level of 80 mg per patient. If there is no grade 2 or worse drug-related toxicity (side effects) observed in the first four week cycle, then another patient may be dosed at the next higher dose level. The first patient was dosed at 80 mg per patient on Aug. 3, 2004. […]

A further data set relates to tumors. Put plainly: Synergy with chemotherapeutic agents. The format is in vivo. The note with it: often inducing complete regression of tumors.

In the case of `COc1cc(OC)c(/C=C/S(=O)(=O)Cc2ccc(OC)c(NCC(=O)[O-])c2)c(OC)c1.[Na+]` [ON 01910.Na, (E)-2,4,6-trimethoxystyryl-3-carboxymethylamino-4-methoxybenzylsulfone], the shelf stability result in data set [1] (75 mg per ml in 100% PEG-400) was “shelf-stable for over one year”. In data set [1] (100% PEG-400 formulation for clinical use), the long term stability result is reported as “extremely stable”. Further, the drug-related toxicity result in data set [2] (80 to 2080 mg per patient, 2 hour iv infusion, twice per week for three weeks, four week cycle) is given as “no grade 2 or worse toxicities”. Also, the dose safely administered in data set [2] (iv 2 hour infusion, twice per week, for 3 weeks, ten days off) is on record as at least 2080 mg.
For `COc1cc(OC)c(/C=C/S(=O)(=O)Cc2ccc(OC)c(NCC(=O)O)c2)c(OC)c1` [Compound 4, (E)-2,4,6-Trimethoxystyryl-3-(carboxymethylamino)-4-methoxybenzylsulfone], the “synergy with chemotherapeutic agents” value with tumors was “strong synergy”.

Values taken from patent US8063109B2, “Formulations for parenteral administration of (e)-2, 6-dialkoxystyryl 4-substituted benzylsulfones” (Onconova Therapeutics, Inc., priority 2004, dated 2011).
